Data reported in paper PMC9090388, “Design, synthesis, biological evaluation and QSAR analysis of novel N-substituted benzimidazole derived carboxamides” (Journal of Enzyme Inhibition and Medicinal Chemistry, 2022).
Values joined by “and” are separate entries in the source; they are usually repeats but may differ in a detail not shown here. Equal values may be shown once.

Assays:
[1] = Ferric reducing/antioxidant power (FRAP assay); format: biochemical; settings: triplicate; – = not active in the FRAP assay
Experimental: The FRAP method was carried out according to previously described procedures with some modifications to be compatible with an assay on a 96-well microplate. All results were expressed as Fe^2+ equivalents (Fe^2+ µmol).

[2] = DPPH free radical scavenging (reducing activity of the stable radical DPPH); format: biochemical; settings: DPPH 50 µM in absolute ethanol; – = did not show any DPPH activity
Experimental: The reducing activity of investigated systems was achieved by the DPPH method according to previously described procedures with modifications to assure the use in a 96-well microplate. Briefly, equal volumes of various concentrations of tested molecules (dissolved in DMSO) were added to the solution of DPPH (final concentration 50 µM in absolute ethanol). Ethanol and DMSO were used as control solutions in line with earlier reports.[27]

[3] = test system: H 460 (lung carcinoma); assay: Antiproliferative activity in vitro, MTT, 72 h; format: cell-based, human; settings: for IC50: Homo sapiens, NCI-H460, 72 h, concentration that causes 50% growth inhibition, 72 h, MTT; for selectivity of antiproliferative activity among cell lines: H 460 versus HCT116, MCF-7, HEK 293
Experimental: (§1) The experiments were performed on four human cell lines, including HCT 116 (colon carcinoma), H 460 (lung carcinoma), MCF-7 (breast carcinoma) and HEK 293 (human embryonic kidney cells), in line with previously published experimental procedures[10]^,[25]. Briefly, the cells were grown in DMEM medium with the addition of 10% foetal bovine serum (FBS), 2 mM L-glutamine, 100 U/mL penicillin and 100 µg/mL streptomycin, and cultured as monolayers at 37 °C in a humidified atmosphere with 5% CO2. Cells were seeded at 2 × 10^3 cells/well in a standard 96-well microtiter plates and left to attach for 24 h. Next day, a test compound was added in five serial 10-fold dilutions. The rate of cell growth was evaluated after 72 h of incubation with MTT reagent. The obtained results are expressed as IC50 values, calculated from the concentration-response curves using linear regression analysis by fitting the test concentrations that give PG values above and below the reference value (i.e. 50%). Each test was performed in quadruplicate in at least two individual experiments.

[4] = test system: HEK 293 (human embryonic kidney cells); assay: Antiproliferative/cytotoxic activity in vitro on non-tumour cells, MTT, 72 h; format: cell-based; settings: Homo sapiens, HEK293; non-tumour cell line; concentration that causes 50% growth inhibition; 72 h, MTT
Experimental: as §1

[5] = test system: HCT116 (colon carcinoma); assay: Antiproliferative activity in vitro, MTT, 72 h; format: cell-based; settings: Homo sapiens, HCT-116, 72 h, concentration that causes 50% growth inhibition
Experimental: as §1

[6] = test system: MCF-7 (breast carcinoma); assay: Antiproliferative activity in vitro, MTT, 72 h; format: cell-based; settings: Homo sapiens, MCF7, concentration that causes 50% growth inhibition
Experimental: as §1

Row | Compound | FRAP [1] | IC50 [2] | IC50 [3] [µM] | IC50 [4] [µM] | IC50 [5] [µM] | IC50 [6] [µM] | selectivity of antiproliferative activity among cell lines [3]
1 | Cn1c(NC(=O)c2ccccc2)nc2ccc(C#N)cc21 [Compound 32, N-(6-Cyano-1-methyl-1H-benzo[d]imidazol-2-yl)benzamide] | 160.27 ± 16.35 mmolFe^2+/mmolC |  |  |  |  |  | 
2 | COc1ccccc1C(=O)Nc1nc2ccccc2[nH]1 [Compound 25, N-(1H-Benzo[d]imidazol-2-yl)-2-methoxybenzamide] |  | 75.7 ± 6.08 mM |  |  |  |  | 
3 | COc1cc(C(=O)Nc2nc3ccccc3n2C)cc(OC)c1OC [Compound 31, 3,4,5-Trimethoxy-N-(1-methyl-1H-benzo[d]imidazol-2-yl)benzamide] | 124.28 ± 1.23 mmolFe^2+/mmolC | 6.04 ± 0.29 mM | 17.7 ± 0.8 | 21.7 ± 9.4 | 18.1 ± 1.4 | 23.8 ± 12.4 | 
4 | COc1cc(C(=O)Nc2nc3ccc(C#N)cc3n2C)cc(OC)c1OC [Compound 35, N-(6-Cyano-1-methyl-1H-benzo[d]imidazol-2-yl)-3,4,5-trimethoxybenzamide] | 338.50 ± 21.56 mmolFe^2+/mmolC |  | 3.9 ± 0.9 | 12.3 ± 1.5 | 5.2 ± 4.2 | 5.5 ± 3.2 | 
5 | Cc1cc(C(C)(C)C)c(O)c(C(C)(C)C)c1 [BHT, butylated hydroxytoluene, reference compound] | 679.15 mmolFe^2+/mmolC |  |  |  |  |  | 
6 | N#Cc1ccc2nc(NC(=O)c3ccccc3)n(-c3ccccc3)c2c1 [Compound 48, N-(6-Cyano-1-phenyl-1H-benzo[d]imidazol-2-yl)benzamide] | 138.98 ± 32.68 mmolFe^2+/mmolC |  |  |  |  |  | 
7 | COc1ccc(C(=O)Nc2nc3ccc(C#N)cc3n2-c2ccccc2)c(OC)c1 [Compound 50, N-(6-Cyano-1-phenyl-1H-benzo[d]imidazol-2-yl)-2,4-dimethoxybenzamide] | 506.70 ± 7.46 mmolFe^2+/mmolC |  |  |  |  |  | 
8 | COc1ccc(C(=O)Nc2nc3ccccc3n2C)c(OC)c1 [Compound 30, 2,4-Dimethoxy-N-(1-methyl-1H-benzo[d]imidazol-2-il)benzamide] |  | 49.6 ± 18.4 mM |  |  |  |  | 
9 | CC(C)Cn1c(NC(=O)c2ccccc2)nc2ccccc21 [Compound 36, N-(1-Isobutyl-1H-benzo[d]imidazol-2-yl)benzamide] | 179.70 ± 23.42 mmolFe^2+/mmolC | 4.51 ± 0.02 mM | 5.1 ± 2.6 | 5.9 ± 2.4 | 3.8 ± 0.9 | 2.7 ± 1.9 | 
10 | COc1cc(C(=O)Nc2nc3ccccc3n2CC(C)C)cc(OC)c1OC [Compound 39, N-(1-Isobutyl-1H-benzo[d]imidazol-2-yl)-3,4,5-trimethoxybenzamide] | 217.20 ± 3.69 mmolFe^2+/mmolC | 4.92 ± 0.13 mM | 1.7 ± 0.1 | 2 ± 0.9 | 3.1 ± 0.7 | 4.6 ± 1.4 | 
11 | COc1ccccc1C(=O)Nc1nc2ccccc2n1CC(C)C [Compound 37, N-(1-Isobutyl-1H-benzo[d]imidazol-2-yl)-2-methoxybenzamide] |  | 10.55 ± 0.03 mM |  |  |  |  | 
12 | COc1cc(C(=O)Nc2nc3ccccc3n2-c2ccccc2)cc(OC)c1OC [Compound 47, 3,4,5-Trimethoxy-N-(1-pheny-1H-benzo[d]imidazol-2-yl)benzamide] | 236.90 ± 1.50 mmolFe^2+/mmolC |  | 0.8 ± 1.5 | 5.3 ± 2.4 | 1.6 ± 0.9 | 2.9 ± 1.3 | selective activity against H 460
13 | COc1cc(C(=O)Nc2nc3ccc(C#N)cc3n2-c2ccccc2)cc(OC)c1OC [Compound 51, N-(6-Cyano-1-phenyl-1H-benzo[d]imidazol-2-yl)-3,4,5-trimethoxybenzamide] | 132.56 ± 18.06 mmolFe^2+/mmolC |  | 4.53 ± 7.3 | 61.1 ± 35.7 | 30.1 ± 13.2 | 29.4 ± 19.4 | selective activity against H 460
14 | COc1cc(C(=O)Nc2nc3ccc(C#N)cc3n2CC(C)C)cc(OC)c1OC [Compound 43, N-(6-Cyano-1-isobutyl-1H-benzo[d]imidazol-2-yl)-3,4,5-trimethoxybenzamide] | 243.30 ± 3.39 mmolFe^2+/mmolC |  |  | 4.7 ± 1 | ~0.6 | 3.1 ± 1.7 | 
15 | COc1cc(C(=O)Nc2nc3ccccc3[nH]2)cc(OC)c1OC [Compound 27, N-(1H-Benzo[d]imidazol-2-yl)-3,4,5-trimethoxybenzamide] | 5.59 ± 0.62 mmolFe^2+/mmolC | 6.82 ± 0.41 mM | 17.6 ± 6.7 | 23.6 ± 4.4 | 23.1 ± 15 | 32.8 ± 15.6 | 
16 | COc1ccccc1C(=O)Nc1nc2ccc(C#N)cc2n1CC(C)C [Compound 41, N-(6-Cyano-1-isobutyl-1H-benzo[d]imidazol-2-yl)-2-methoxybenzamide] | 154.30 ± 5.67 mmolFe^2+/mmolC | 4.58 ± 0.15 mM |  |  |  |  | 
17 | COc1ccc(C(=O)Nc2nc3ccc(C#N)cc3n2CC(C)C)c(OC)c1 [Compound 42, N-(6-Cyano-1-isobutyl-1H-benzo[d]imidazol-2-yl)-2,4-dimethoxybenzamide] |  | 5.35 ± 0.07 mM |  |  |  |  | 
18 | COc1cc([C@@H]2c3cc4c(cc3[C@@H](O[C@@H]3O[C@@H]5CO[C@@H](C)O[C@H]5[C@H](O)[C@H]3O)[C@H]3COC(=O)[C@H]23)OCO4)cc(OC)c1O [Etoposide, reference compound] |  |  | 0.1 ± 0.04 |  | 5 ± 2 | 1 ± 0.7 | 
19 | COc1ccccc1C(=O)Nc1nc2ccccc2n1-c1ccccc1 [Compound 45, 2-Methoxy-N-(1-phenyl-1H-benzo[d]imidazol-2-yl)benzamide] |  | 8.71 ± 0.34 mM |  |  |  |  | 
20 | COc1ccc(C(=O)Nc2nc3ccccc3[nH]2)c(OC)c1 [Compound 26, N-(1H-Benzo[d]imidazol-2-yl)-2,4-dimethoxybenzamide] | 166.61 ± 9.51 mmolFe^2+/mmolC | 41.7 ± 1.51 mM |  |  |  |  | 
21 | COc1ccc(C(=O)Nc2nc3ccccc3n2CC(C)C)c(OC)c1 [Compound 38, N-(1-Isobutyl-1H-benzo[d]imidazol-2-yl)-2,4-dimethoxybenzamide] | 5.80 ± 0.15 mmolFe^2+/mmolC | 26.58 ± 0.02 mM |  |  |  |  | 
22 | COc1ccccc1C(=O)Nc1nc2ccc(C#N)cc2n1-c1ccccc1 [Compound 49, N-(6-Cyano-1-phenyl-1H-benzo[d]imidazol-2-yl)-2-methoxybenzamide] | 221.31 ± 27.39 mmolFe^2+/mmolC | 29.9 ± 1.3 mM |  |  |  |  | 
23 | Cn1c(NC(=O)c2ccccc2)nc2ccccc21 [Compound 28, N-(1-Methyl-1H-benzo[d]imidazol-2-yl)benzamide] | 538.81 mmolFe^2+/mmolC and 358.81 ± 4.83 mmolFe^2+/mmolC | ~3.78 mM and 3.78 mM | 10.7 ± 2.3 | 29.5 ± 12.5 | 18.7 ± 5.1 | 11.9 ± 7.5 | 
24 | COc1ccccc1C(=O)Nc1nc2ccccc2n1C [Compound 29, 2-Methoxy-N-(1-methyl-1H-benzo[d]imidazol-2-yl)benzamide] | 110.16 ± 1.44 mmolFe^2+/mmolC | 6.05 ± 1.03 mM |  |  |  |  | 
25 | O=C(Nc1nc2ccccc2n1-c1ccccc1)c1ccccc1 [Compound 44, N-(1-Phenyl-1H-benzo[d]imidazol-2-yl)benzamide] | 184.70 ± 3.22 mmolFe^2+/mmolC |  |  |  |  |  | 
26 | COc1ccc(C(=O)Nc2nc3ccccc3n2-c2ccccc2)c(OC)c1 [Compound 46, 2,4-Dimethoxy-N-(1-phenyl-1H-benzo[d]imidazol-2-yl)benzamide] |  | 8.48 ± 0.71 mM |  |  |  |  | 
